# Laboratory results reported in US7091182B2, “Method for assisting in differential diagnosis and treatment of autistic syndromes” (Repligen Corporation, priority 1997, dated 2006).
# Entries after “also recorded” stand apart in the source; their conditions may differ.
# Columns and labels:
# [1] = tested on: children with autistic behavior; test: Behavioral evaluation after secretin administration; format: in vivo, human
# Excerpt: Prior to the secretion administration, each child underwent developmental/psychological evaluation. […] In addition, most underwent a structured evaluation including assessment of intelligence, language ability, adaptive function [Vineland Adaptive Behavior Scales]^53 and behavioral rating scales [Child Behavior Checklist]^54. A more specific measure directly related to autism, the Childhood Autism Rating Scale [CARS]^55, was also used.
# The most recent 8 cases had developmental/psychological evaluations at the University of Maryland or at the Kennedy Krieger Institute prior to the secretin administration.
# The number and type of evaluation techniques that were employed increased across subjects as did the degree of sophistication of the professional staff involved in the design and conduct of the evaluation approaches. Specifically, data on the first seven subjects consisted of brief clinical observations, parental report, analysis of videotapes, and reports of evaluations by professionals who had conducted routine assessments not specifically dictated by our research protocol. Whereas, data on the second eight subjects studied consisted of the same methods described above, as well as with the addition of direct observation of behavior employing a standard functional analysis of structured videotape samples (analyzed in random order by blind raters); standard assessments including Communication and Symbolic Behavior Scales (CSBS), Pre-School Language Scales—3 (PSLS), Bayley Scales of Infant Development: Second Edition, Vineland Adaptive Behavior Scales, Childhood Autism Rating Scale (CARS), and Behavior Observation System (BOS). Further, the evaluation team for the least eight subjects involved professionals from the areas of neuropsychology, behavioral psychology and developmental pediatrics from both the University of Maryland School of Medicine and the Kennedy Krieger Institute/Johns Hopkins University School of Medicine.
# [2] = tested on: children with autistic behavior; test: Stool consistency / gastrointestinal symptoms after endoscopy and secretin injection; format: in vivo, human
# Excerpt: The specific procedures were as follows.
# [3] = tested on: children without behavioral abnormalities; adults; test: Secretin stimulatory response (pancreatic juice output) in non-autistic children and adults; format: in vivo, human
# Method: The time required to collect basal duodenal fluid samples (1–2 ml) prior to secretin administration was 2–5 minutes, which was similar to that of non-autistic controls. […] Published adult responses using duodenal intubation and extended periods of specimen collection vary between 1.5 and 4.9 ml/min^56,57. Six out of 7 autistic patients who had chronic loose stools had pancreatico-biliary secretion rates above 5 ml/min (FIG. 4). […] The highest rate of secretion was 10 ml/min in one child.
# [4] = tested on: ovariectomized, estrogen-primed rats; details: cited from earlier work
# [5] = tested on: patients with intrahepatic cholestasis; details: double-blind placebo-controlled multicentric trial; cited from earlier work
substance,measurement,setting,value
secretin,latest behavioral evaluation (diagnosis),[1]; Case 1,"changed from a low functioning autistic child to a social, non-autistic, speech delayed child; also recorded: changed from a low functioning autistic child to a social, non-autistic, speech-delayed child"
same,changes in autistic behavior,"[1]; Case 1, after first secretin dose","dramatic improvement in eye contact, alertness, expressive language and fine motor skills; also recorded: improvements in eye contact, alertness, expressive language, and fine motor skills"
same,language and cognitive functions,"[1]; Case 1, second single secretin infusion eight months later",further improvement in their language and cognitive functions
same,cognitive skills,"[1]; Case 2, five weeks following a single dosage",progressive improvement in cognitive skills; also recorded: improved over a five weeks period
same,social behavior and language,"[1]; Case 2, second dose 3 months later",further improvement in their social behavior and language
same,language and communication skills,"[1]; Case 3, second infusion 3 months later",accelerated their improvement
same,"language, social, and communication skills","[1]; Case 3, three weeks and two months after the procedure","significant improvements in language, social, and communication skills; also recorded: improved significantly"
same,Progress after Secretin administration: eye contact,"[1]; Case #1, within two months, % of the time, before: Minimal eye contact",Eye contact 75% of the time
same,Progress after Secretin administration: bowel movements,"[1]; Case #1, within two months, before: Abnormal bowel movements",Normal bowel movements
same,Progress after Secretin administration: sleeping,"[1]; Case #1, within two months, before: Consistent sleeping problems",Has slept through almost every night entirely
same,Progress after Secretin administration: potty training,"[1]; Case #1, within two months, before: Diapers only",Completely potty trained
same,Progress after Secretin administration: imitating commands,"[1]; Case #1, within two months, before: Did not imitate commands",Will imitate almost any multi-step command
same,Progress after Secretin administration: water consumption,"[1]; Case #1, within two months, before: Excessive water consumption",Excessive water consumption - no change
same,Progress after Secretin administration: spinning episodes,"[1]; Case #1, within two months, before: Infrequent (1–2 times/week)",No spinning episodes
same,Progress after Secretin administration: diet preferences,"[1]; Case #1, within two months, before: Limited diet preferences",No change
same,Progress after Secretin administration: connections between language and objects,"[1]; Case #1, within two months, before: No apparent connections",Many connections made between new language learned and objects. Recites
same,Progress after Secretin administration: flash cards,"[1]; Case #1, within two months, before: No flash cards",40–50 Flash cards
same,Progress after Secretin administration: focus on requested tasks,"[1]; Case #1, within two months, before: No focus on requested tasks",Will sit and watch carefully. Will perform most tasks after watching once or
same,Progress after Secretin administration: interest in drawing,"[1]; Case #1, within two months, before: No interest in drawing",Wants to draw constantly. Will draw complete face and name the parts as he
same,Progress after Secretin administration: response to request for gestures,"[1]; Case #1, within two months, before: No response",Responds to all kinds of requests and spontaneously says these things themself.
same,Progress after Secretin administration: sentences,"[1]; Case #1, within two months, before: No sentences","Short sentences, such as “I love you”, “I want juice”, “Good night mammy”"
same,Progress after Secretin administration: words,"[1]; Case #1, within two months, before: Two words",100's of words - will repeat some aproximation at any word requested
same,Progress after Secretin administration: videos,"[1]; Case #1, within two months, before: Watch videos",Now gets “involved” interactively with their videos. They will imitate the hand
same,"autistic symptoms and cognitive, language, and social skills, share of responders",[1]; all children who received secretin,more than half of the children
same,Changes after Secretin: Activity level,"[1]; case #2, time 1 week",Very energetic but has very good focus during
same,Changes after Secretin: Appetite,"[1]; case #2, time 1 week",Eating more foods: 2–3 large meals per day:
same,Changes after Secretin: Movements,"[1]; case #2, time 1 week",A decrease in most abnormal movements but
same,Changes after Secretin: Social interaction,"[1]; case #2, time 1 week","Hugging therapists; better eye contact,"
same,Changes after Secretin: Correct responses to drills,"[1]; case #2, time 1 week, before: 50% correct responses",75–80% correct responses
same,Changes after Secretin: Bowel movements,"[1]; case #2, time 2–3 days",At first constipated for 2–3 days. then normal
same,"Changes after Secretin: Receptive language, commands understood","[1]; case #2, time 3 weeks, before: 20–30% of commands",understands where they are going: understands 75%
same,Changes after Secretin: Fine motor,"[1]; case #2, time 4 weeks",Putting together Legos: turns key in door; turns
same,Changes after Secretin: Gross motor,"[1]; case #2, time 4 weeks",Starts to hang on monkey bars: goes down fire
same,Changes after Secretin: Sleep,"[1]; case #2, time 1 day, before: 7–8 hours",10–12 hours per night uninterrupted every night
same,"Changes after Secretin: Alertness, concentration","[1]; case #2, time 2 days",Extremely alert: looking therapist directly in
same,Changes: Activity level,[1]; case #3,Less hyperactive. More settled. More attentive and
same,"Changes: Alertness, concentration",[1]; case #3,"Chewing clothing, hands, and licking have stopped."
same,Changes: Appetite,[1]; case #3,Normal diet seems to satisfy them more. No longer
same,Changes: Cognitive,[1]; case #3,"Actions are more purposeful. Playing sequencing,"
same,Changes: Eye contact,[1]; case #3,More eye contact. Seeks out attention and once
same,Changes: Fine motor skills,[1]; case #3,Now uses fork and spoon much more readily and
same,Changes: Sleep,[1]; case #3,Now goes to bed willing and happily. Takes great
same,Changes: Social interaction,[1]; case #3,Now has a friend at school. They participate actively in
same,Changes: Correct responses to drills/commands,"[1]; case #3, before: 50% correct responses",Rarely guessing. Very tuned in. Perhaps 80% correct
same,Changes: Bowel movements,"[1]; case #3, before: Loose stools or diarrhea",Normal bowel movement since week three
same,Changes: Receptive language,"[1]; case #3, before: understood 50% of commands",Understands almost everything. Understands two-step
same,increase in the scores on the Vineland Scale of Adaptive Behavior,"[1]; case three, immediately after secretin administration",22%
same,delayed reaction reported by the parents,"[1]; case three, one-to-two months later","improved eye contact, increased focus on tasks, as well as improvements in language"
same,language skills,"[1]; case two, after the secretin injection",significant improvement in language skills
same,Vineland Scale of Adaptive Behaviors,[1]; child SG,increase in all five areas tested
same,increase in the CSBS,[1]; child SG,25%
same,increases in language skills,[1]; child SG,six-to-nine month
same,increase in language skills measured by the PSLS (equivalent in development),[1]; child WB,five months to one year
same,increase on the Bayley Scale of Development,[1]; child WB,11 point
same,increase on the CSBS scale,"[1]; child WB, within four months",37%
same,autistic symptoms,[1]; each of the three cases,produced relief from autistic symptoms
same,"cognitive, social, language, and age appropriate skills","[1]; first seven subjects, parental report and non-protocol evaluations","dramatic changes in cognitive, social, language, and age appropriate skills were reported for four of the first seven subjects"
same,decrease of activity level measured by actometers,[1]; subject one,50%
same,increase on the BOS,[1]; subject one,22%
same,chronic diarrhea,"[2]; Case 1, within three weeks after the procedure",their chronic diarrhea resolved; also recorded: His chronic diarrhea resolved
same,chronic diarrhea,[2]; Case 3,His chronic diarrhea resolved
same,duration of stool improvement,[2]; seven children with chronic loose stools,In five children this improvement was permanent
same,consistency of stools,"[2]; seven children with chronic loose stools, after endoscopy and secretin injection",all of them had an improvement in the consistency of stools
same,average stimulatory response for secretin,"[3]; children 3–7 years of age, own data, same endoscopic collection technique",1 to 2 mL/min
same,typical pancreatic juice output,"[3]; children without behavioral abnormalities, ages 1 to 6",1 to 2 mL/min
same,circadian rise of LH secretion,[4],strikingly effective in increasing
same,"reduction of serum bilirubin levels, secretin versus placebo",[5],no statistically significant differences
